Activity calls are given as the source filed them.
Legend:
[1] = viability loss in Vero cells – cytotoxicity control for Vif-APOBEC3G degradation inhibitor project, dose response (AID 1117358); format: functional; conditions: Vero
[2] = reduction of Shn3 3'UTR-driven luciferase in osteoblasts – cell-based, Clone20 osteoblasts, firefly luciferase, cherry-picked, dose response (AID 624132); format: functional;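 note: firefly luciferase luminescence from reporter carrying the Shn3 3'UTR in osteoblasts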
[3] = non-specific 3'UTR reporter inhibition in Clone20-Shn3RL – cell-based, Renilla luciferase, cherry-picked, counter-screen for Shn3 inhibitor project, dose response (AID 624133); format: functional
[4] = loss of viability in HepG2 cells – cell-based, CellTiter-Glo, cherry-picked, cytotoxicity control for Shn3 inhibitor project, dose response (AID 624134); format: functional
[5] = system: INS1; test: INS-1E survival protection against cytokine death – cell-based, luminescence, retest, dose response (AID 449756); format: functional; conditions: Rattus norvegicus, INS1;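 note: cell death triggered by IL-1 beta plus TNF-alpha plus IFN-gamma mixture; protective hits raise ATP signal compared with cytokine alone wells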
[6] = Luminescence Cell-Based Dose Confirmation HTS to Identify Inhibitors of Polyadenylation.; format: functional
[7] = target: Heat shock protein HSP 90-alpha (Homo sapiens, UniProt P07900); test: Luminescence-based dose response biochemical high throughput screening assay for inhibitors of the Heat Shock Protein 90 (HSP90). [Related pubchem assays: 1831 (Summary AID.), 1846 (Confirmation screen.), 1789 (Primary screen.)]
[8] = target: Sphingosine 1-phosphate receptor 1 (Homo sapiens, UniProt P21453); test: Dose Response Cell-Based Assay for Agonists of the Sphingosine 1-Phosphate Receptor 1 (S1P1): Purchased Analogues. [Related pubchem assays: 1192, 373, 439 ]; format: functional
[9] = target: Sphingosine 1-phosphate receptor 3 (Homo sapiens, UniProt Q99500); test: Dose Response Cell-Based Assay for Agonists of the Sphingosine 1-Phosphate Receptor 3 (S1P3): Purchased Analogues. [Related pubchem assays: 373, 439 ]; format: functional
Sphingosine 1-phosphate receptor 3, sequence (Q99500 whole entry): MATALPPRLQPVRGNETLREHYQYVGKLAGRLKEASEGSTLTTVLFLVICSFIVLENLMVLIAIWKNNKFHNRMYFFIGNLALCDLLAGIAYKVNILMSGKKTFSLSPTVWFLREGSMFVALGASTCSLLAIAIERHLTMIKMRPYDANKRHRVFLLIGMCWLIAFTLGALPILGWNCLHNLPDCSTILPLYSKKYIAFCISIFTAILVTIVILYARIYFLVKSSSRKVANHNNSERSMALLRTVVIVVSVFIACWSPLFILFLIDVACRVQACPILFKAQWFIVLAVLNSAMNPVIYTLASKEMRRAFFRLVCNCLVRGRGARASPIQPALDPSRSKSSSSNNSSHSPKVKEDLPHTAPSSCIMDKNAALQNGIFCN

[10] = target: T1, Sphingosine 1-phosphate receptor 2 (Homo sapiens, UniProt O95136); test: Dose Response Cell-Based Assay for Agonists of the Sphingosine 1-Phosphate Receptor 2 (S1P2): Purchased Analogues. [Related pubchem assays: 1192, 373, 439 ]; format: functional
T1 sequence (O95136 whole entry): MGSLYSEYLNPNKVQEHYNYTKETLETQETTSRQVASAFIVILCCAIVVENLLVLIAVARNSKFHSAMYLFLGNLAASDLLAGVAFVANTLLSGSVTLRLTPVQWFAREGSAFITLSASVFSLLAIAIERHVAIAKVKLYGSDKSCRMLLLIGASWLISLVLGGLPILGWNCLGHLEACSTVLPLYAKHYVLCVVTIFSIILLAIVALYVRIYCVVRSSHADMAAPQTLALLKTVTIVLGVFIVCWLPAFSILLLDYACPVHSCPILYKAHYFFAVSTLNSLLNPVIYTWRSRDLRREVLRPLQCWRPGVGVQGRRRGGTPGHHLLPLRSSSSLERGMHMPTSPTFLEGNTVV

[11] = target: Aryl hydrocarbon receptor (Homo sapiens, UniProt P35869); test: Luminescence-based cell-based high throughput dose response assay for activators of the Aryl Hydrocarbon Receptor (AHR). [Related pubchem assays: 2796 (Primary screen (AHR activators in singlicate)), 2845 (Confirmation screen (AHR activators in triplicate)), 434939 (Counterscreen (PXR activators in triplicate)), 2804 (Summary (AHR activators))]; format: ADME
Aryl hydrocarbon receptor, sequence (P35869 whole entry): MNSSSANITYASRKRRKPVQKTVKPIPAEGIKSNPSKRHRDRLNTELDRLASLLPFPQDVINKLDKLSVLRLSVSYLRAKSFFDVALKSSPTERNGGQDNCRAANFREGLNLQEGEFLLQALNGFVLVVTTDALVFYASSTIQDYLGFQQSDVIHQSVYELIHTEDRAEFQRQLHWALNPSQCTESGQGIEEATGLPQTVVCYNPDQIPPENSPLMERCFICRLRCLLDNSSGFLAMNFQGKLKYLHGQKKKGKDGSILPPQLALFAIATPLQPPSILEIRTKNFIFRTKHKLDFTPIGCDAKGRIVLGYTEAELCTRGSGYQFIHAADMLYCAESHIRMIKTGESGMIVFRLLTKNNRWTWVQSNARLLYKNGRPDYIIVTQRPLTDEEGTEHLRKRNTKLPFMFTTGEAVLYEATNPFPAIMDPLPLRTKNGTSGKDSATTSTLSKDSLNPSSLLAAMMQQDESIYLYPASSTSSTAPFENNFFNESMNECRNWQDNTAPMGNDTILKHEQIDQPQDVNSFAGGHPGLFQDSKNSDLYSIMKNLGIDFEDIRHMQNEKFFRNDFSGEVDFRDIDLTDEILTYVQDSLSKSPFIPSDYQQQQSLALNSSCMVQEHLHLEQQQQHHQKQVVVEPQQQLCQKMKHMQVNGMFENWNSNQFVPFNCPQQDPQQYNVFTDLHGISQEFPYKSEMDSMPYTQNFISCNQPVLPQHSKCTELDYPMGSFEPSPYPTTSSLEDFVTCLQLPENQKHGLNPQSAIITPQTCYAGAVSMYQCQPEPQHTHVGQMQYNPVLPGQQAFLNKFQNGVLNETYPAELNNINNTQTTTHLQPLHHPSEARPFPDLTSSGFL

[12] = target: T1, Sphingosine 1-phosphate receptor 2; test: Dose Response Cell Based Assay for Agonists of the S1P2 Receptor. [Related pubchem assays: 729, 736, 843 ]; format: functional
[13] = target: E3 ubiquitin-protein ligase Mdm2 (Homo sapiens, UniProt Q00987); test: MDM2-luc reporter signal enhancers, multi-concentration potency testing, MDM2 ubiquitin-protein ligase inhibitor program, whole-cell format, luminescence detection, 384-well microplate (AID 1394); format: functional;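 note: MDM2 E3 inhibitors raise luminescence so EC50 is for signal enhancement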
[14] = target: NADPH oxidase 1 (Homo sapiens, UniProt Q9Y5S8); test: Late-stage luminescence-based cell-based dose response assay to identify inhibitors of NADPH oxidase 1 (NOX1): Purchased analogs 2.; format: functional
NADPH oxidase 1, sequence (Q9Y5S8 whole entry): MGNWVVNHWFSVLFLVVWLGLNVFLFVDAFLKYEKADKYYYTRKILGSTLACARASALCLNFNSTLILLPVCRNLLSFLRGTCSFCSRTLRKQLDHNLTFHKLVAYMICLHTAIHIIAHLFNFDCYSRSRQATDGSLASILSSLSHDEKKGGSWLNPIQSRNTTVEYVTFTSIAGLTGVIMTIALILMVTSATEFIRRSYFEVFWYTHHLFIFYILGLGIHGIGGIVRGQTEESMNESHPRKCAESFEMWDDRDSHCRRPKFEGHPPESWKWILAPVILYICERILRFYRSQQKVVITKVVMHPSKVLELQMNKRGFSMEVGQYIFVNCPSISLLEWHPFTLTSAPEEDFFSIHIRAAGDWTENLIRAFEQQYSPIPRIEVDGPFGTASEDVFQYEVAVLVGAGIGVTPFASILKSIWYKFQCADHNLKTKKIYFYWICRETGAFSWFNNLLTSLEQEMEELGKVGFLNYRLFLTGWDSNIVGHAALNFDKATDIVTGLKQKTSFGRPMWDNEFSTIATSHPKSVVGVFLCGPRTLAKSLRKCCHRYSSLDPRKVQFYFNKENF

[15] = system: Streptococcus; test: GAS UMAA2166 growth inhibition – luminescence, BacTiterGlo, counter-screen for streptokinase expression inhibitor project, dose response (AID 1915); format: functional, organism-based;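 note: potency for reduction of bacterial viability or growth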
[16] = target: Voltage-gated inwardly rectifying potassium channel KCNH2 (Homo sapiens, UniProt Q12809); test: concentration-dependent hERG rescue from blockers – cell-based, thallium flux, dose response (AID 2121); format: ADME
Voltage-gated inwardly rectifying potassium channel KCNH2, sequence (Q12809 whole entry): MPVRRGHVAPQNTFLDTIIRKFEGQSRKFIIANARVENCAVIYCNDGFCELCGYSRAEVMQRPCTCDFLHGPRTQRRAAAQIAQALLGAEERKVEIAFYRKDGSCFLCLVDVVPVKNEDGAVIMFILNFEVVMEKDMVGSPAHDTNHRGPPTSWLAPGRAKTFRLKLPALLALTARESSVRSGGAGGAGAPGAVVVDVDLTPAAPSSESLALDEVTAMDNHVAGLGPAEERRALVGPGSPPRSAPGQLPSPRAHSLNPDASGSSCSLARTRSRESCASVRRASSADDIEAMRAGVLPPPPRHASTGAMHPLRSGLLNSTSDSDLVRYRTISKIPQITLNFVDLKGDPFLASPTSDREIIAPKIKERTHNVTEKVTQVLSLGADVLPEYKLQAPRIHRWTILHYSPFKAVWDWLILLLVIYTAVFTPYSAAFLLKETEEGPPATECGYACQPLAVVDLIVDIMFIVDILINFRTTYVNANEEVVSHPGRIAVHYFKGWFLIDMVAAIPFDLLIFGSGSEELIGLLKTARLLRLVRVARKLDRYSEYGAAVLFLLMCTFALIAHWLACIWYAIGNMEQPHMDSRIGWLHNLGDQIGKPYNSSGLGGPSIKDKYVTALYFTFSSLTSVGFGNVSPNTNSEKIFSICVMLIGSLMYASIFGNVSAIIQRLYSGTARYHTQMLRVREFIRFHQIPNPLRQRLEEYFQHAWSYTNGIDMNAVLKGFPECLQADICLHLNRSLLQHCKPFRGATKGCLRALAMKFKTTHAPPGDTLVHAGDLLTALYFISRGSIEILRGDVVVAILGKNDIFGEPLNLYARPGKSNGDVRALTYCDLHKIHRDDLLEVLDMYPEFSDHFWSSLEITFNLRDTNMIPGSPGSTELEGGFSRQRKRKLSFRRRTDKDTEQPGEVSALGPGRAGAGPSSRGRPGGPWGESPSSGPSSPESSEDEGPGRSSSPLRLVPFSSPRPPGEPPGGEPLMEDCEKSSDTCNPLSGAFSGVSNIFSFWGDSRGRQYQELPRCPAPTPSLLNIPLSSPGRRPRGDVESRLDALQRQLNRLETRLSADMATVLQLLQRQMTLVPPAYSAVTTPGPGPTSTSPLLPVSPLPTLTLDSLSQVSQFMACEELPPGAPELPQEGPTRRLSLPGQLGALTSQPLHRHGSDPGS

[17] = NIH3T3 cell viability loss – ATP luminescence, mouse fibroblasts, counter-screen, dose response (AID 2010); format: functional, cell-based;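 note: cells exposed to compound for about 90 hours before reading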
[18] = target: T2, Streptokinase A (Streptococcus pyogenes serotype M1, UniProt P10520); test: viability-normalized secreted streptokinase activity reduction – plasminogen activation absorbance, OD405, dose response (AID 1914); format: functional, Streptococcus pyogenes M1 GAS;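 note: secreted streptokinase activity via plasminogen activation per viability signal from cell pellet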
T2 sequence (P10520 whole entry): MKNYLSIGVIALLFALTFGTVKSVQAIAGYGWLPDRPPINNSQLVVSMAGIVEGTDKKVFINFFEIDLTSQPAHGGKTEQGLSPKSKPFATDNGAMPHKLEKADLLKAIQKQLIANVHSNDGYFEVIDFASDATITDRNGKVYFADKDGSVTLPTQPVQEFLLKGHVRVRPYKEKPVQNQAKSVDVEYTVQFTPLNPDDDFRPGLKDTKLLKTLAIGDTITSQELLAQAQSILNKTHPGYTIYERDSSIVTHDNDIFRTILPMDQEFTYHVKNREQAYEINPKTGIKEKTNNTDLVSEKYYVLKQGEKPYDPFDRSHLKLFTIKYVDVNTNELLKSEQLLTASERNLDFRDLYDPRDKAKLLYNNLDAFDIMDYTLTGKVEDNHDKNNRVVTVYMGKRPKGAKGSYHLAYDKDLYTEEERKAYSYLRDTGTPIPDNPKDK

[19] = system: Streptococcus sp. 'group A'; test: Streptococcus pyogenes SK(-)GAS viability under kanamycin – luminescence, BacTiterGlo, confirmation, counter-screen for streptokinase expression inhibitor project, dose response (AID 1900); format: functional, organism-based
[20] = Trypanosoma cruzi growth suppression in host cells – NIH3T3 host cells, beta-gal luminescence, confirmation (AID 2044); format: functional, cell-based;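 note: intracellular parasites grown in NIH/3T3 mouse fibroblasts as host cells; luminescent beta-galactosidase reporter signal from transgenic T. cruzi replicating inside host cells; inhibitors lower the luminescence signal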
[21] = target: Genome polyprotein (Hepatitis C virus, UniProt Q2Q167); test: disruption of hepatitis C core self-association – biochemical, TR-FRET, dose response (AID 2159); parameters: species or system Hepacivirus hominis;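 note: blocks dimerization of HCV core protein measured by TR-FRET between tagged core106 pairs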
[22] = target: Mitochondrial peptide methionine sulfoxide reductase (Bos taurus, UniProt P54149); test: Absorbance-based biochemical high throughput dose response assay for activators of Methionine sulfoxide reductase A (MsrA).; format: functional
Mitochondrial peptide methionine sulfoxide reductase, sequence (P54149 whole entry): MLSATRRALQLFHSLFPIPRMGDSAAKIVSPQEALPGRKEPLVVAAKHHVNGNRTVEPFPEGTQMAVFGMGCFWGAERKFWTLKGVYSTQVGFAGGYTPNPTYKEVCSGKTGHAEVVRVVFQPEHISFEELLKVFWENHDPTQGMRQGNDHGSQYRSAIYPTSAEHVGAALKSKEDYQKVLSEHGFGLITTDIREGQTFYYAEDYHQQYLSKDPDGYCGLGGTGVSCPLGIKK

[23] = target: Serine/threonine-protein phosphatase PP1-alpha catalytic subunit (Homo sapiens, UniProt P62136); test: inhibition of protein phosphatase 1 activity – biochemical, fluorescence, dose response (AID 2394)
Serine/threonine-protein phosphatase PP1-alpha catalytic subunit, sequence (P62136 whole entry): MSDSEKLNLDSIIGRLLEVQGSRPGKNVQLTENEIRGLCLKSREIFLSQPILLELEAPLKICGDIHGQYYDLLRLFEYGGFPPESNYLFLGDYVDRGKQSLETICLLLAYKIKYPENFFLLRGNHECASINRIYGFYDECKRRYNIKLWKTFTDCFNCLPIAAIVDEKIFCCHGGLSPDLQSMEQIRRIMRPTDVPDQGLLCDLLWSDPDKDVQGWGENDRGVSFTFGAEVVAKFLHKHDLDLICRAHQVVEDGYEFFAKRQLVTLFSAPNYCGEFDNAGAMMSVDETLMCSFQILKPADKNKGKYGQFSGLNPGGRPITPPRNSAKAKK

[24] = target: Induced myeloid leukemia cell differentiation protein Mcl-1 (Homo sapiens, UniProt Q07820); format: functional
Induced myeloid leukemia cell differentiation protein Mcl-1, sequence (Q07820 whole entry): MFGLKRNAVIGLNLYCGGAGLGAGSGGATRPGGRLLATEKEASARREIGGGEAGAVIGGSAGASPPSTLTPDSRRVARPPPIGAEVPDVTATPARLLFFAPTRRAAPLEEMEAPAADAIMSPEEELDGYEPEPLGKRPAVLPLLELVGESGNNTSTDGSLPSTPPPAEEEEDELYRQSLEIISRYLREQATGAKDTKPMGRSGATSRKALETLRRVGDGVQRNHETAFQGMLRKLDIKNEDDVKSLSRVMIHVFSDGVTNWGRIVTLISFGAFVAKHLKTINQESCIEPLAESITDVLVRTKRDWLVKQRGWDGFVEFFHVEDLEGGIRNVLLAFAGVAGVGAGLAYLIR

[25] = target: Serine/threonine-protein phosphatase (Homo sapiens, UniProt Q9BPW0); test: inhibition of protein phosphatase 5 activity – biochemical, fluorescence, dose response (AID 2395)
[26] = target: T3, Ubiquitin-conjugating enzyme E2 N (Homo sapiens, UniProt P61088); format: functional
T3 sequence (P61088 whole entry): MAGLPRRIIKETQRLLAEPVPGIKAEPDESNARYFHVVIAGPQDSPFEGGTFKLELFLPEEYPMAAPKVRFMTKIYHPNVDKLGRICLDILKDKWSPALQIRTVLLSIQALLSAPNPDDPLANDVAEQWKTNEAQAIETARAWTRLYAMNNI

[27] = target: T3, Ubiquitin-conjugating enzyme E2 N; format: functional; remark: listed apart in the source
[28] = target: T4, Bcl-2-related protein A1 (Mus musculus, UniProt Q07440); format: functional;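 note: confirmatory dose–response counterscreen on Bfl-1, used to check hits from a UBC13 polyubiquitin inhibitor campaign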
T4 sequence (Q07440 whole entry): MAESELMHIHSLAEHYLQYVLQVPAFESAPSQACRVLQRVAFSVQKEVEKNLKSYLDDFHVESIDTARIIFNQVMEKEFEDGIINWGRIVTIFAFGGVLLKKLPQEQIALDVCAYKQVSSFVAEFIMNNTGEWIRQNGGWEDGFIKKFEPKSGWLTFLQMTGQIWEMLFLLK

[29] = target: T5, Apoptotic protease-activating factor 1 (Homo sapiens, UniProt O14727); format: functional
T5 sequence (O14727 whole entry): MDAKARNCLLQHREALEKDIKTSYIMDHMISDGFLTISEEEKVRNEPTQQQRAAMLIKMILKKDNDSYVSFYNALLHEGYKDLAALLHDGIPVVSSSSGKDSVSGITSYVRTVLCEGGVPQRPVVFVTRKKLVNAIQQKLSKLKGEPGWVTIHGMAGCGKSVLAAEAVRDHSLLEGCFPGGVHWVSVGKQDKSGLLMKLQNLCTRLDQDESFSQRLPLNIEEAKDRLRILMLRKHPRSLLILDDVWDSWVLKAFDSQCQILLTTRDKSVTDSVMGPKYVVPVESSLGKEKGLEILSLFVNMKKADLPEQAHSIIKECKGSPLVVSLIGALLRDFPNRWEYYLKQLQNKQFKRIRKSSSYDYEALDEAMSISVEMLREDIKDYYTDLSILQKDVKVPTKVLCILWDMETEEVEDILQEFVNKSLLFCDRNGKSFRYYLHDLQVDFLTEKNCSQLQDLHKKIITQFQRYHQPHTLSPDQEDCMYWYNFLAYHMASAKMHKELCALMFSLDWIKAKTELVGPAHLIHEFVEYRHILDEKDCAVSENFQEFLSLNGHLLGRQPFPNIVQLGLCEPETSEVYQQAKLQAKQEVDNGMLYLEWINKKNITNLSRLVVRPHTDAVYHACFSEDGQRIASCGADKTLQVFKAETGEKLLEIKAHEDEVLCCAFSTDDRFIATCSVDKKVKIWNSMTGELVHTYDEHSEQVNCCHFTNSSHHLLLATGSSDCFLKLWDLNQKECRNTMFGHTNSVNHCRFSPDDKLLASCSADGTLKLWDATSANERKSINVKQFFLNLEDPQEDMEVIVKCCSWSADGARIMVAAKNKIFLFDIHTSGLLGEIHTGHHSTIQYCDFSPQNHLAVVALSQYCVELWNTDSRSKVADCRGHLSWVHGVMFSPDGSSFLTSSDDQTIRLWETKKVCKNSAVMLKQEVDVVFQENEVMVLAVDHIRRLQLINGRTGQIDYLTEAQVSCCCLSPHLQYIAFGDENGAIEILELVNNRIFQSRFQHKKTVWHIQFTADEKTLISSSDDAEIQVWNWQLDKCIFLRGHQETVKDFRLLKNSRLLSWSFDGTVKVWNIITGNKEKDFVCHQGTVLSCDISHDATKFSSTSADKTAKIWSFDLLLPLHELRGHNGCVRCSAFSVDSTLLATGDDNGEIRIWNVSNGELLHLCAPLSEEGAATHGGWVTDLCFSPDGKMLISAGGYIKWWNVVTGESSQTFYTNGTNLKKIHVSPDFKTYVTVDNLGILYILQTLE

[30] = target: Oxytocin receptor (Homo sapiens, UniProt P30559); test: Counterscreen for vasopressin 1 receptor (V1R) agonists: Fluorescence-based cell-based high throughput dose response assay for agonists of the Oxytocin Receptor (OXTR). [Related pubchem assays: 2435 (Primary screen (OXTR agonists in singlicate)), 434964 (Confirmation screen (V1R agonists in triplicate)), 434969 (Counterscreen (OXTR agonists in …; format: functional
[31] = target: Vasopressin V1a receptor (Homo sapiens, UniProt P37288); test: Fluorescence-based cell-based high throughput dose response screening assay for agonists of the vasopressin 1 receptor (V1R).; format: functional
Vasopressin V1a receptor, sequence (P37288 whole entry): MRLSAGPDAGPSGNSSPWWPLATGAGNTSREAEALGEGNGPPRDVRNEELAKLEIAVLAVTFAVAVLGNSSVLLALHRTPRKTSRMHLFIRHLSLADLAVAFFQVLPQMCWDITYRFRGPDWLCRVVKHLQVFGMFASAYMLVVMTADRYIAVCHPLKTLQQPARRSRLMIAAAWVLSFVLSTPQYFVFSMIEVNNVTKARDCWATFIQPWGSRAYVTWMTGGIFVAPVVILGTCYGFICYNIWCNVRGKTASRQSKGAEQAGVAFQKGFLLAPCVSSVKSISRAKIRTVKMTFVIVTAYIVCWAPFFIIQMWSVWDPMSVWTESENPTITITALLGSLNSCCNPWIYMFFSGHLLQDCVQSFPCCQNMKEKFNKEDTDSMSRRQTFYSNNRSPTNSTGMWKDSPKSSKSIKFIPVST

[32] = glucagon-like peptide-1 release potency in STC-1, concentration-response, half-maximal inhibitory concentration in the STC-1 line (AID 1117345); format: functional, cell-based
[33] = Potency on glucagon-like peptide 1 release, dose-response in NCI-H716 cell line, half maximal inhibitory concentration (AID 1117344); format: functional, cell-based
[34] = target: T6, DNA repair protein RAD52 homolog (Homo sapiens, UniProt P43351); format: functional, biochemical
T6 sequence (P43351 whole entry): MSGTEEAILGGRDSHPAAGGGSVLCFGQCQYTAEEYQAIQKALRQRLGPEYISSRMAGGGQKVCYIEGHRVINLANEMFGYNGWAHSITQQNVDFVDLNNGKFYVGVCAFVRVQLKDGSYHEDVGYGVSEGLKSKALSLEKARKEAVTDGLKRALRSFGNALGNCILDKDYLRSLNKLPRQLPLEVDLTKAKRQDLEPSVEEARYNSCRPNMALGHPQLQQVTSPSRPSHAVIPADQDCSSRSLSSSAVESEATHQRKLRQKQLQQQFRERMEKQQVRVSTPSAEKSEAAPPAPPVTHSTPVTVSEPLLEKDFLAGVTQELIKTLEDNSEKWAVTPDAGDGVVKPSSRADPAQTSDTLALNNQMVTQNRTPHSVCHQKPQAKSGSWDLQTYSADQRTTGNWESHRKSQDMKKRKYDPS

[35] = target: Melanocortin receptor 4 (Homo sapiens, UniProt P32245); format: functional, cell-based;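 note: Cell-based assay with luminescence read-out, confirmatory dose-response testing for agonist activity of biased ligands at MC4R; human U2OS cells with tagged receptor and beta-arrestin; potency of agonists that increase receptor coupling to beta-arrestin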
Melanocortin receptor 4, sequence (P32245 whole entry): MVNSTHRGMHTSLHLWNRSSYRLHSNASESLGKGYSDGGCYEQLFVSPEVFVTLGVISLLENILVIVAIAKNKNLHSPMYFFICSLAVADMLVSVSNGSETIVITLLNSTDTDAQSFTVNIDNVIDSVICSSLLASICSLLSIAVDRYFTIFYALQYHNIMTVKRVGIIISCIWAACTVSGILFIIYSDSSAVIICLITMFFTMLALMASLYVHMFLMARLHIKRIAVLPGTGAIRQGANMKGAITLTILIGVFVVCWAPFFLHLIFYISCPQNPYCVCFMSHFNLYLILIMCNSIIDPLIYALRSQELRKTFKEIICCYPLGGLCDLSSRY

Cc1ccc(S(=O)(=O)NCCCOC(=O)Nc2ccncc2)cc1
CC50 [1]: > 40 µM (active)

COc1ccc(CNc2ncnc3sccc23)cc1
AC50 [2]: 1.66 µM (active) | AC50 [3]: 8.63 µM (active) | AC50 [4]: 36 µM (active) | AC50 [5]: 5.39 µM (active) | EC50 [6]: > 120 µM (not active)

COC(=O)c1ccccc1OCCCOc1ccc(C=O)cc1OC
IC50 [7]: 314 nM (active)

O=C(CSc1nnc(-c2ccco2)o1)N(C1CCCCC1)C1CCCCC1
EC50 [8]: 278 nM (active) | EC50 [9]: 110 nM (active) | EC50 [10]: > 10 µM (not active)

COc1ccc(NC(=O)c2cccc3c(Br)cccc23)cc1
EC50 [11]: 965 nM (active)

Cc1ccc(CNC(=O)CCNC(=O)c2ccco2)cc1
EC50 [12]: > 50 µM (not active)

CCOC(=O)C1CCN(C(=S)Nc2cc(C)ccc2C)CC1
EC50 [13]: 4.34 µM (not active)

COc1ccc(NS(=O)(=O)Cc2ccc(N)cc2)cc1
IC50 [14]: > 17 µM (not active)

CC(C)COc1ccc(-c2nn(-c3ccccc3)cc2C(=O)Nc2nccs2)cc1
EC50 [15]: > 150 µM (not active) | EC50 [16]: 1.04 µM (active) | EC50 [17]: > 30 µM (not active) | EC50 [18]: > 150 µM (not active) | EC50 [19]: 48.3 µM (active) | EC50 [20]: 2.21 µM (active)

CC1(O)C(=O)C=C2C=C(c3ccc(C#N)cc3)OC=C2C1=O (stereo not drawn)
IC50 [21]: > 49.8 µM (not active)

Cc1cc(C)c(S(=O)(=O)/N=C2/C=C(Sc3nc[nH]n3)C(=O)c3ccccc32)cc1C
EC50 [22]: > 104 µM (inactive) | IC50 [23]: 18.6 µM (not active) | IC50 [24]: 3.07 µM (active) | AC50 [5]: 2.6 µM (active) | IC50 [25]: 4.19 µM (active)

C#CCOCCOCCOCCNc1nc(N2CCN(C(=O)CCCCCCCCCCNC(=O)[C@@H](CCC(=O)O)n3cc(CCCCCN)nn3)CC2)nc(N2CCN(C(=O)CCCCCCCCCCNC(=O)[C@H](CCCCN)n3cc(C[C@@H](C)CC)nn3)CC2)n1
IC50 [26]: 11.4 µM (active) | IC50 [27]: 4.52 µM (active) | IC50 [28]: > 20 µM (inactive) | IC50 [29]: 27.2 µM (active) | EC50 [30]: > 29.9 µM (not active) | EC50 [31]: 8.37 µM (active)

CC(C)(C)CC(C)(C)c1ccc(OCCOCC[N+](C)(C)Cc2ccccc2)cc1 [BENZETHONIUM CHLORIDE]
IC50 [26]: > 20 µM (inactive) | IC50 [32]: 13.8 µM (inactive) | IC50 [33]: 21.9 µM (inactive) | AC50 [34]: 31.3 µM (active) | IC50 [29]: 23.5 µM (active) | EC50 [35]: > 89.2 µM (inactive)
